From patent US20210355104A1, “ADENOSINE RECEPTOR BINDING COMPOUNDS” (Nikang Therapeuticsm Inc., priority 2018, published 2021)
pIC50: −log10 of the molar value. Values joined by “and” are separate entries in the source; they are usually repeats but may differ in a detail not shown here. Identical values can stand only once.

How the values were obtained:
[1] = target: T1, Adenosine A2A receptor (Homo sapiens, UniProt P29274); experiment: Adenosine A2A receptor competitive binding assay (Tag-lite HTRF); details: Tag-lite adenosine A2A receptor ligand binding
Summary of the method: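 Compound displacement of a red fluorescent antagonist tracer (added at 60 nM stock) from donor-labelled, pre-transfected human A2A cells was read by HTRF after 2 h at room temperature; compound dilutions contained 0.6% DMSO.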

[2] = target: T1, Adenosine A2A receptor; experiment: cAMP assay in 293A cells stably expressing the adenosine A2A receptor (CGS21680 stimulation, HTRF); assay type: cell-based; parameters: expressed in transfected cells; host or cells: 293A cells (Invitrogen, Cat# R705-07) infected with A2A-expressing lentivirus (custom packaged by Biosettia), puromycin selected; details: 293A-A2AR cells, 0.1% BSA
[3] = 2 h room temperature, values separated by / are repeat determinations
[4] = 8 nM CGS, values separated by / are repeat determinations, read-out: cAMP (nM) 0.1% BSA, 8 nM CGS
[5] = 1 uM CGS, values separated by / are repeat determinations, read-out: cAMP (nM) 0.1% BSA, 1 uM CGS
[6] = 1 uM CGS, read-out: cAMP (nM) 0.1% BSA, 1 uM CGS
[7] = 8 nM CGS, read-out: cAMP (nM) 0.1% BSA, 8 nM CGS

T1 sequence (P29274 whole entry): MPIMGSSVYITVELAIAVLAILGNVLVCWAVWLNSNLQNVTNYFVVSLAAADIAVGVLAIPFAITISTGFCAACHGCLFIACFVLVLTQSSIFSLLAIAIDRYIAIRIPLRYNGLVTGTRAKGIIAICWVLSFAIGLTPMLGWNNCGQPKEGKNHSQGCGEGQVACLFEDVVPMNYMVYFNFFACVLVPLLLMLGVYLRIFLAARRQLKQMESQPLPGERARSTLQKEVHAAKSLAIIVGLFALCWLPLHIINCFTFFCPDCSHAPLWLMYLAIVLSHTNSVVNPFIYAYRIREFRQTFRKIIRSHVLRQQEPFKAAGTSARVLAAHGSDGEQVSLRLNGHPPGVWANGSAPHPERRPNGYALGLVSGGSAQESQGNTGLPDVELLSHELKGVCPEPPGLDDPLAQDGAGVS

Structure (SMILES)	pIC50 [1, 3]	IC50 [2, 4]	IC50 [2, 5]	pIC50 ([1]; HTRF)	IC50 [2, 6] [nM]	IC50 [2, 7]
Cc1cc(-c2c(OCc3nn(C)cc3C(C)C)nc(N)nc2-c2ccc(F)cc2)cc(C(F)F)n1 [Example 184, 5-(2-(difluoromethyl)-6-methylpyridin-4-yl)-4-(4-fluorophenyl)-6-((4-isopropyl-1-methyl-1H-pyrazol-3-yl)methoxy)pyrimidin-2-amine]	7.48	8.8 nM				
Cc1cc(-c2c(O[C@@H](C)CO)nc(N)nc2-c2ccc(F)cc2)cc(C(F)F)n1 [Example 76, (S)-2-((2-amino-5-(2-(difluoromethyl)-6-methylpyridin-4-yl)-6-(4-fluorophenyl)pyrimidin-4-yl)oxy)propan-1-ol]	7.72	3.2 nM				
Cc1cc(-c2c(OCc3ncnn3C(C)C)nc(N)nc2-c2ccc(F)cc2)cc(C(F)F)n1 [Example 179, 5-(2-(difluoromethyl)-6-methylpyridin-4-yl)-4-(4-fluorophenyl)-6-((1-isopropyl-1H-1,2,4-triazol-5-yl)methoxy)pyrimidin-2-amine]	9.15 and 9.00	2.9 nM	16 nM and 57 nM			
Cc1cc(-c2c(OCC(=O)Nc3ccccc3)nc(N)nc2-c2ccc(F)cc2)cc(C(F)F)n1 [Example 92, 2-((2-amino-5-(2-(difluoromethyl)-6-methylpyridin-4-yl)-6-(4-fluorophenyl)pyrimidin-4-yl)oxy)-N-phenylacetamide]	7.32	6.4 nM				
Cc1cc(-c2c(OCc3nccn3CC3CC3)nc(N)nc2-c2ccc(F)cc2)cc(C(F)F)n1 [Example 177, 4-((1-(cyclopropylmethyl)-1H-imidazol-2-yl)methoxy)-5-(2-(difluoromethyl)-6-methylpyridin-4-yl)-6-(4-fluorophenyl)pyrimidin-2-amine]	9.70	2.6 nM and 2.9 nM	271 nM			
Cc1cc(-c2c(OCc3cc(C(C)(C)O)ccn3)nc(N)nc2-c2ccc(F)cc2)cc(C(F)F)n1 [Example 224, 2-(2-(((2-amino-5-(2-(difluoromethyl)-6-methylpyridin-4-yl)-6-(4-fluorophenyl)pyrimidin-4-yl)oxy)methyl)pyridin-4-yl)propan-2-ol]				8.02	1320	
Cc1cc(-c2c(OCC(=O)N(C)C)nc(N)nc2-c2ccccc2)cc(C(F)(F)F)n1 [Example 2, 2-((2-amino-5-(2-methyl-6-(trifluoromethyl)pyridin-4-yl)-6-phenylpyrimidin-4-yl)oxy)-N,N-dimethylacetamide]	7.52	6.8 nM and 3.4 nM				
CCNC(=O)Nc1ccc(CCOc2nc(N)nc(-c3ccc(F)cc3)c2-c2cc(C)nc(C(F)F)c2)cc1 [Example 67, 1-(4-(2-((2-amino-5-(2-(difluoromethyl)-6-methylpyridin-4-yl)-6-(4-fluorophenyl)pyrimidin-4-yl)oxy)ethyl)phenyl)-3-ethylurea]	7.57	4.7 nM				
Cc1cc(-c2c(OCC(=O)N(C)c3ccccc3)nc(N)nc2-c2ccc(F)cc2)cc(C(F)F)n1 [Example 98, 2-((2-amino-5-(2-(difluoromethyl)-6-methylpyridin-4-yl)-6-(4-fluorophenyl)pyrimidin-4-yl)oxy)-N-methyl-N-phenylacetamide]	8.23	1.2 nM				
COCCNC(=O)COc1nc(N)nc(-c2ccc(F)cc2)c1-c1cc(C)nc(C(F)F)c1 [Example 45, 2-((2-amino-5-(2-(difluoromethyl)-6-methylpyridin-4-yl)-6-(4-fluorophenyl)pyrimidin-4-yl)oxy)-N-(2-methoxyethyl)acetamide]	7.59	66 nM and 8.9 nM				
Cc1cc(-c2c(OCCN(C)c3ccccc3)nc(N)nc2-c2ccc(F)cc2)cc(C(F)F)n1 [Example 87, 5-(2-(difluoromethyl)-6-methylpyridin-4-yl)-4-(4-fluorophenyl)-6-(2-(methyl(phenyl)amino)ethoxy)pyrimidin-2-amine]	7.74	2.2 nM				
CCN(C(=O)COc1nc(N)nc(-c2ccc(F)cc2)c1-c1cc(C)nc(C(F)F)c1)C1COC1 [Example 118, 2-((2-amino-5-(2-(difluoromethyl)-6-methylpyridin-4-yl)-6-(4-fluorophenyl)pyrimidin-4-yl)oxy)-N-ethyl-N-(oxetan-3-yl)acetamide]	7.54	18 nM				
Cc1cc(-c2c(OCC3(CO)CCOCC3)nc(N)nc2-c2ccc(F)cc2)cc(C(F)F)n1 [Example 125, (4-(((2-amino-5-(2-(difluoromethyl)-6-methylpyridin-4-yl)-6-(4-fluorophenyl)pyrimidin-4-yl)oxy)methyl)tetrahydro-2H-pyran-4-yl)methanol]	7.74	8.7 nM	1890 nM			
Cc1cc(-c2c(OCCc3ccc(NS(C)(=O)=O)cc3)nc(N)nc2-c2ccc(F)cc2)cc(C(F)F)n1 [Example 69, N-(4-(2-((2-amino-5-(2-(difluoromethyl)-6-methylpyridin-4-yl)-6-(4-fluorophenyl)pyrimidin-4-yl)oxy)ethyl)phenyl)methanesulfonamide]	7.42	5.8 nM				
COC(=O)N1CCN(CCOc2nc(N)nc(-c3ccc(F)cc3)c2-c2cc(C)nc(C(F)F)c2)CC1 [Example 51, methyl 4-(2-((2-amino-5-(2-(difluoromethyl)-6-methylpyridin-4-yl)-6-(4-fluorophenyl)pyrimidin-4-yl)oxy)ethyl)piperazine-1-carboxylate]	8.00	3.9 nM				
Cc1cc(-c2c(OCc3nccn3C3CC(O)C3)nc(N)nc2-c2ccc(F)cc2)cc(C(F)F)n1 (stereo not shown) [Example 210, 3-(2-(((2-amino-5-(2-(difluoromethyl)-6-methylpyridin-4-yl)-6-(4-fluorophenyl)pyrimidin-4-yl)oxy)methyl)-1H-imidazol-1-yl)cyclobutan-1-ol]				8.47 and 8.27	2250	3.7 nM and 5.4 nM
Cc1cc(-c2c(OCCN(C)c3nccc(N)n3)nc(N)nc2-c2ccc(F)cc2)cc(C(F)F)n1 [Example 147, N^2-(2-((2-amino-5-(2-(difluoromethyl)-6-methylpyridin-4-yl)-6-(4-fluorophenyl)pyrimidin-4-yl)oxy)ethyl)-N^2-methylpyrimidine-2,4-diamine]	7.89		5460 nM			
CCNC(=O)COc1nc(N)nc(-c2ccc(F)cc2)c1-c1cc(C)nc(C(F)F)c1 [Example 39, 2-((2-amino-5-(2-(difluoromethyl)-6-methylpyridin-4-yl)-6-(4-fluorophenyl)pyrimidin-4-yl)oxy)-N-ethylacetamide]	8.14 and 8.19	0.42 nM and 0.57 nM and 2.2 nM				
CCN(C(=O)COc1nc(N)nc(-c2ccc(F)cc2)c1-c1cc(C)nc(C(F)F)c1)c1ccccc1 [Example 90]	7.64	6.8 nM				
Cc1cc(-c2c(OCc3nc(C#N)cn3C(C)C)nc(N)nc2-c2ccc(F)cc2)cc(C(F)F)n1 [Example 203]				8.52		9.6 nM
Cc1cc(-c2c(OCc3nnn(C(C)C)n3)nc(N)nc2-c2ccc(F)cc2)cc(C(F)F)n1 [Example 185, 5-(2-(difluoromethyl)-6-methylpyridin-4-yl)-4-(4-fluorophenyl)-6-((2-isopropyl-2H-tetrazol-5-yl)methoxy)pyrimidin-2-amine]	8.15		6 nM and 25 nM			
Cc1cc(-c2c(OCC(C)(C)O)nc(N)nc2-c2ccc(F)cc2)cc(C(F)F)n1 [Example 62, 1-((2-amino-5-(2-(difluoromethyl)-6-methylpyridin-4-yl)-6-(4-fluorophenyl)pyrimidin-4-yl)oxy)-2-methylpropan-2-ol]	7.82	15 nM				
COC(=O)NCC1(COc2nc(N)nc(-c3ccc(F)cc3)c2-c2cc(C)nc(C(F)F)c2)CCOCC1 [Example 158, methyl ((4-(((2-amino-5-(2-(difluoromethyl)-6-methylpyridin-4-yl)-6-(4-fluorophenyl)pyrimidin-4-yl)oxy)methyl)tetrahydro-2H-pyran-4-yl)methyl)carbamate]	6.20	231 nM				
Cc1cc(-c2c(OCc3nncn3C(C)C)nc(N)nc2-c2ccc(F)cc2)cc(C(F)F)n1 [Example 178, 5-(2-(difluoromethyl)-6-methylpyridin-4-yl)-4-(4-fluorophenyl)-6-((4-isopropyl-4H-1,2,4-triazol-3-yl)methoxy)pyrimidin-2-amine]	8.85 and 8.49	1.5 nM				
Cc1cc(-c2c(OCC(=O)O)nc(N)nc2-c2ccc(F)cc2)cc(C(F)F)n1 [Example 71, 2-((2-amino-5-(2-(difluoromethyl)-6-methylpyridin-4-yl)-6-(4-fluorophenyl)pyrimidin-4-yl)oxy)acetic acid]	< 6.00	> 1000 nM				
Cc1cc(-c2c(OCCN3CCN(C4COC4)CC3)nc(N)nc2-c2ccc(F)cc2)cc(C(F)F)n1 [Example 52, 5-(2-(difluoromethyl)-6-methylpyridin-4-yl)-4-(4-fluorophenyl)-6-(2-(4-(oxetan-3-yl)piperazin-1-yl)ethoxy)pyrimidin-2-amine]	6.92	532 nM				
COCCOc1ccc(N2CCN(CCOc3nc(N)nc(-c4ccc(F)cc4)c3-c3cc(C)nc(C(F)F)c3)CC2)cc1 [Example 53, 5-(2-Difluoromethyl-6-methyl-pyridin-4-yl)-4-(4-fluoro-phenyl)-6-(2-{4-[4-(2-methoxy-ethoxy)-phenyl]-piperazin-1-yl}-ethoxy)-pyrimidin-2-ylamine]	7.89	0.67 nM				
